How the values were obtained:
Experiment in all cases: relative viability (nuclei count vs DMSO), 5 days (fraction); higher = more cells survive
Vorinostat + Pictilisib = compound: O=C(CCCCCCC(=O)Nc1ccccc1)NO [Vorinostat] + CS(=O)(=O)N1CCN(Cc2cc3nc(-c4cccc5[nH]ncc45)nc(N4CCOCC4)c3s2)CC1 [Pictilisib] (partner 1 µM)
Summary of the method: (§1)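 Relative viability was taken as the ratio of nuclei in treated wells to nuclei in vehicle wells. Lung cancer cell lines in 1536-well plates received compounds by pin tool one day after seeding, either one drug alone or a fixed anchor-drug dose plus five library-drug doses (not always all listed) in √10 steps. Nuclei were counted on 4× images after 5 days of treatment, and values are medians of duplicate plates.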

Vorinostat + Decitabine = compound: O=C(CCCCCCC(=O)Nc1ccccc1)NO [Vorinostat] + Nc1ncn([C@H]2C[C@H](O)[C@@H](CO)O2)c(=O)n1 [Decitabine] (partner 2 µM)
Summary of the method: as §1

Vorinostat + Bortezomib = compound: O=C(CCCCCCC(=O)Nc1ccccc1)NO [Vorinostat] + CC(C)C[C@H](NC(=O)[C@H](Cc1ccccc1)NC(=O)c1cnccn1)B(O)O [Bortezomib] (partner 0.002 µM)
Summary of the method: as §1

Vorinostat + Navitoclax = compound: O=C(CCCCCCC(=O)Nc1ccccc1)NO [Vorinostat] + CC1(C)CCC(c2ccc(Cl)cc2)=C(CN2CCN(c3ccc(C(=O)NS(=O)(=O)c4ccc(N[C@H](CCN5CCOCC5)CSc5ccccc5)c(S(=O)(=O)C(F)(F)F)c4)cc3)CC2)C1 [Navitoclax] (partner 0.5 µM)
Summary of the method: as §1

Vorinostat + AZD7762 = compound: O=C(CCCCCCC(=O)Nc1ccccc1)NO [Vorinostat] + NC(=O)Nc1cc(-c2cccc(F)c2)sc1C(=O)N[C@H]1CCCNC1 [AZD7762] (partner 0.2 µM)
Summary of the method: as §1

| Cell Line | relative viability (Vorinostat + Pictilisib; first compound 0.253 µM) | relative viability (Vorinostat + Pictilisib; first compound 0.8 µM) | relative viability (Vorinostat + Pictilisib; first compound 2.53 µM) | relative viability (Vorinostat + Pictilisib; first compound 8 µM) | relative viability (Vorinostat + Decitabine; first compound 0.253 µM) | relative viability (Vorinostat + Decitabine; first compound 0.8 µM) | relative viability (Vorinostat + Decitabine; first compound 2.53 µM) | relative viability (Vorinostat + Decitabine; first compound 8 µM) | relative viability (Vorinostat + Bortezomib; first compound 0.253 µM) | relative viability (Vorinostat + Bortezomib; first compound 0.8 µM) | relative viability (Vorinostat + Bortezomib; first compound 2.53 µM) | relative viability (Vorinostat + Bortezomib; first compound 8 µM) | relative viability (Vorinostat + Navitoclax; first compound 0.253 µM) | relative viability (Vorinostat + Navitoclax; first compound 0.8 µM) | relative viability (Vorinostat + Navitoclax; first compound 2.53 µM) | relative viability (Vorinostat + Navitoclax; first compound 8 µM) | relative viability (Vorinostat + AZD7762; first compound 0.253 µM) | relative viability (Vorinostat + AZD7762; first compound 0.8 µM) | relative viability (Vorinostat + AZD7762; first compound 2.53 µM) | relative viability (Vorinostat + AZD7762; first compound 8 µM) |
| --- | --- | --- | --- | --- | --- | --- | --- | --- | --- | --- | --- | --- | --- | --- | --- | --- | --- | --- | --- | --- |
| COR-L23 | 0.728 | 0.451 | 0.0944 | 0.0511 | 0.373 | 0.301 | 0.136 | 0.0929 | 0.985 | 0.683 | 0.131 | 0.0488 | 1.13 | 0.503 | 0.0887 | 0.0849 |  |  |  |  |
| NCI-H1355 | 0.556 | 0.329 | 0.244 | 0.165 | 0.393 | 0.354 | 0.253 | 0.143 | 1.3 | 0.978 | 0.863 | 0.131 | 1.05 | 0.876 | 0.506 | 0.166 | 0.892 | 0.595 | 0.394 | 0.15 |
| NCI-H1437 | 0.466 | 0.167 | 0.107 | 0.088 | 0.55 | 0.454 | 0.285 | 0.235 | 0.578 | 0.417 | 0.117 | 0.0915 | 1.11 | 0.908 | 0.166 | 0.118 | 1.23 | 0.9 | 0.426 | 0.197 |
| NCI-H2023 | 0.221 | 0.214 | 0.128 | 0.0818 | 0.242 | 0.177 | 0.11 | 0.0687 | 1.16 | 0.657 | 0.223 | 0.07 | 1.08 | 0.91 | 0.449 | 0.0939 |  |  |  |  |
| HOP-62 | 0.966 | 0.205 | 0.203 | 0.079 | 0.17 | 0.209 | 0.169 | 0.0871 | 1.25 | 0.434 | 0.328 | 0.0711 | 0.969 | 0.779 | 0.215 | 0.0581 | 0.258 | 0.518 | 0.145 | 0.0514 |
| SK-LU-1 | 0.595 | 0.55 | 0.351 | 0.133 | 0.655 | 0.669 | 0.494 | 0.196 | 0.678 | 1.22 | 0.248 | 0.163 | 0.785 | 0.528 | 0.109 | 0.111 |  |  |  |  |
| NCI-H1395 | 0.637 | 0.619 | 0.427 | 0.362 | 0.857 | 0.69 | 0.565 | 0.343 |  |  |  |  | 1.14 | 1.26 | 0.693 | 0.387 | 0.37 | 0.373 | 0.375 | 0.296 |
| SW 900 |  |  |  |  | 0.34 | 0.351 | 0.23 | 0.159 |  |  |  |  |  |  |  |  | 0.606 | 0.418 | 0.229 | 0.0892 |
| NCI-H1793 | 0.479 | 0.355 | 0.286 | 0.174 | 0.596 | 0.504 | 0.38 | 0.165 |  |  |  |  | 0.534 | 0.521 | 0.186 | 0.118 | 0.188 | 0.492 | 0.204 | 0.131 |
| LCLC-103H | 0.794 | 0.55 | 0.306 | 0.211 | 0.715 | 0.766 | 0.329 | 0.363 | 1.16 | 0.893 | 0.391 | 0.238 |  |  |  |  | 0.696 | 0.672 | 0.45 | 0.238 |
| A549 | 0.601 | 0.4 | 0.0772 | 0.0417 | 0.224 | 0.302 | 0.256 | 0.0174 |  |  |  |  | 1.31 | 1.08 | 0.352 | 0.0351 |  |  |  |  |
| NCI-H2170 | 0.348 | 0.235 | 0.209 | 0.185 | 0.415 | 0.407 | 0.321 | 0.129 |  |  |  |  | 0.706 | 0.481 | 0.216 | 0.172 | 1.23 | 0.923 | 0.332 | 0.106 |
| UMC-11 | 0.975 | 0.29 | 0.0923 | 0.0756 | 0.613 | 0.402 | 0.179 | 0.134 | 0.672 | 0.56 | 0.0652 | 0.0503 | 0.277 | 0.154 | 0.0896 | 0.0856 |  |  |  |  |
| NCI-H358 | 0.372 | 0.468 | 0.17 | 0.172 | 0.202 | 0.196 | 0.105 | 0.091 |  |  |  |  |  |  |  |  | 0.466 | 0.312 | 0.14 | 0.159 |
| NCI-H650 | 0.902 | 0.491 | 0.183 | 0.16 | 0.332 | 0.312 | 0.208 | 0.104 | 0.523 | 0.42 | 0.19 | 0.144 |  |  |  |  | 0.606 | 0.737 | 0.235 | 0.165 |
| NCI-H2228 | 0.649 | 0.223 | 0.142 | 0.138 |  |  |  |  | 0.979 | 0.389 | 0.188 | 0.097 | 0.953 | 0.809 | 0.473 | 0.132 |  |  |  |  |
| NCI-H522 |  |  |  |  | 0.632 | 0.657 | 0.531 | 0.259 |  |  |  |  |  |  |  |  | 0.987 | 1.05 | 0.834 | 0.235 |
| COR-L 105 | 0.438 | 0.261 | 0.262 | 0.201 | 0.588 | 0.679 | 0.362 | 0.256 | 1.3 | 0.617 | 0.292 | 0.267 | 0.741 | 0.58 | 0.257 | 0.234 |  |  |  |  |
| NCI-H520 | 0.369 | 0.213 | 0.21 | 0.146 | 0.581 | 0.474 | 0.297 | 0.157 | 0.605 | 0.164 | 0.13 | 0.107 | 1.17 | 0.845 | 0.256 | 0.162 |  |  |  |  |
| IA-LM | 0.309 | 0.25 | 0.114 | 0.0475 |  |  |  |  | 1.03 | 0.547 | 0.161 | 0.0471 | 0.791 | 0.597 | 0.235 | 0.0188 |  |  |  |  |
| NCI-H661 | 0.557 | 0.696 | 0.462 | 0.214 | 0.575 | 0.468 | 0.335 | 0.316 | 0.839 | 0.933 | 0.439 | 0.185 |  |  |  |  |  |  |  |  |

Source: the supplement of paper PMC10307832
